The text below walks through data of PMC7539012, “Hyperphosphorylated tau aggregation and cytotoxicity modulators screen identified prescription drugs linked to Alzheimer's disease and cognitive functions” (Scientific Reports, 2020).

This assay concerns T1, 1N4R p-tau.
T1 construct: made in house; host or cells: E. coli (PIMAX system)
In words: p-tau aggregation modulator screen of 1280-compound library (ThS fluorescence net change over 16 h).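 On ThS net change: 30 µM compound with 6 µM p-tau over 16 h.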 The class given is biochemical. Also noted: key to PTAI>2SD: *: PTAI>2SD.

Setting [1] is: 1280-compound library screen, […].
Setting [2] is: p-tau aggregation modulator screen of the compound library, ThS fluorescence net change.
[3] abbreviates: p-tau aggregation modulator screen of 1280-compound library, ThS fluorescence net change.
[4] abbreviates: 1280-compound library screen, ThS fluorescence net change over 16 h.
Where [5] appears, read: p-tau aggregation modulator screen of 1280-compound library, […].
Setting [6] is: library screen, ThS fluorescence net change over 16 h with p-tau.

Structures can show the parent of a compound that is named as a salt. Where two headings read alike, the source gives them in different places.

As to `Oc1cc(Cl)ccc1Oc1ccc(Cl)cc1Cl` [Triclosan], the ThS net change under setting [1] was 398.

The compound `CCCC1C(=O)N2C(N(C)C)=Nc3ccc(C)cc3N2C1=O` (stereo not shown) [Azapropazone] returned a ThS net change under setting [2] of 429.

On to `CN(C)CCN(Cc1cccs1)c1ccccn1` [Methapyrilene hydrochloride], for which the ThS net change under setting [3] turned out to be 370.

For the compound `CC(C)(C)NCC(O)c1ccc(O)c(CO)c1` (stereo not shown) [Salbutamol], the ThS net change under setting [3] is 367.

As to `COc1ccccc1N1CCN(CC(O)COc2cccc3ccccc23)CC1.Cl.Cl` (stereo not shown) [Naftopidil dihydrochloride], the ThS net change under setting [2] came to 453.

Consider `CCN(CC)C(=S)SSC(=S)N(CC)CC` [Disulfiram], for which, under setting [3], the ThS net change came out at 339.

`O=C1C(CC[S+]([O-])c2ccccc2)C(=O)N(c2ccccc2)N1c1ccccc1` (stereo not shown) [Sulfinpyrazone] showed a ThS net change under setting [3] of 342.

In turn, `CCN(CC)Cc1cc(Nc2ccnc3cc(Cl)ccc23)ccc1O.Cl.Cl.O.O` [Amodiaquin dihydrochloride dihydrate] returned a ThS net change of 309.

As to `CCS(=O)(=O)CCn1c([N+](=O)[O-])cnc1C` [Tinidazole], the ThS net change under setting [4] was 392.

As for `CC(=O)OCC(=O)[C@@]12N=C(C)O[C@@H]1C[C@H]1[C@@H]3CCC4=CC(=O)C=C[C@]4(C)[C@H]3[C@@H](O)C[C@@]12C` [Deflazacort], the ThS net change under setting [2] was found to be 420.

`C=C1CC[C@@]2(O)[C@H]3Cc4ccc(O)c5c4[C@@]2(CCN3CC2CC2)[C@H]1O5` [Nalmefene hydrochloride] showed a ThS net change under setting [2] of 418.

On to `O=C(O)CCC(=O)Nc1ccc(S(=O)(=O)Nc2nccs2)cc1` [Succinylsulfathiazole], for which the ThS net change under setting [4] is listed as 382.

With `C[N+]1(C)[C@@H]2CC[C@H]1C[C@@H](OC(=O)C(CO)c1ccccc1)C2` (stereo partly shown) [Methylatropine nitrate], the ThS net change under setting [2] worked out at 413.

Under setting [4], `COc1c2occc2c(OC)c2c(=O)cc(C)oc12` [Khellin] returned a ThS net change of 389.

In turn, `C#C[C@]1(O)CC[C@H]2[C@@H]3CCc4cc(O)ccc4[C@H]3CC[C@@]21C` [Ethinylestradiol] returned a ThS net change under setting [2] of 451.

For `Br.C[N+]1([O-])[C@@H]2C[C@@H](OC(=O)[C@H](CO)c3ccccc3)C[C@H]1[C@@H]1O[C@@H]12` (stereo partly shown) [Scopolamin-N-oxide hydrobromide], the ThS net change under setting [5] was determined as 345.

The compound `CCCCN(CCCC)CCC(O)c1cc2c(Cl)cc(Cl)cc2c2cc(C(F)(F)F)ccc12` (stereo not shown) [Halofantrine hydrochloride] displayed a ThS net change of 555.

On to `CN(C/C=C/C#CC(C)(C)C)Cc1cccc2ccccc12` [Terbinafine], for which, under setting [2], the ThS net change is 506.

As to `CN(C)CCCOc1nn(Cc2ccccc2)c2ccccc12` [Benzydamine hydrochloride], the ThS net change under setting [6] is listed as 310.

Turning to `CCC[C@@H]1C[C@@H](C(=O)N[C@@H]([C@H]2O[C@H](SC)[C@H](O)[C@@H](O)[C@H]2O)[C@@H](C)O)N(C)C1` [Lincomycin hydrochloride], the ThS net change under setting [3] is 367.

For the compound `CC(C)(N)Cc1ccccc1.Cl` [Phentermine hydrochloride], under setting [1], the ThS net change is 408.

For `C[C@]12CC[C@H]3[C@@H](CCC4=CC(=O)CC[C@@H]43)[C@@H]1CC[C@@H]2O` [Nandrolone], the ThS net change was found to be 479.

With `O=P1(N(CCCl)CCCl)NCCCO1` (stereo not shown) [Cyclophosphamide], the ThS net change is listed as 440.

The compound `CCN(CC)C(C)CN1c2ccccc2Sc2ccccc21` (stereo not shown) [Ethopropazine hydrochloride] yielded a ThS net change under setting [3] of 336.

The compound `O=C1CN(/N=C/c2ccc([N+](=O)[O-])o2)C(=O)N1` [Nitrofurantoin] gave a ThS net change under setting [6] of 303.

In turn, `CCOc1ccc2nc(S(N)(=O)=O)sc2c1` [Ethoxzolamide] showed a ThS net change under setting [2] of 428.

In turn, `CCCCCCCN(CC)CCCC(O)c1ccc(NS(C)(=O)=O)cc1.CCCCCCCN(CC)CCCC(O)c1ccc(NS(C)(=O)=O)cc1.O=C(O)/C=C/C(=O)O` (stereo not shown) [Ibutilide fumarate] gave a ThS net change under setting [3] of 330.

The compound `CCC1=C[C@@H]2C[N@]3CCc4c([nH]c5ccccc45)[C@@](C(=O)OC)(C2)[C@@H]13` [Catharanthine] yielded a ThS net change under setting [5] of 374.

Regarding `COc1ccccc1OCCNCC(O)COc1cccc2[nH]c3ccccc3c12` (stereo not shown) [Carvedilol], the ThS net change under setting [4] turned out to be 394.

In turn, `CC(C)c1c(CN(C)C(C)Cc2ccccc2)n(C)n(-c2ccccc2)c1=O` (stereo not shown) [Famprofazone] displayed a ThS net change of 477.

`CC1Cc2ccccc2N1NC(=O)c1ccc(Cl)c(S(N)(=O)=O)c1` (stereo not shown) [Indapamide] displayed a ThS net change under setting [3] of 347.

`CC1CC(OC(=O)C(O)c2ccccc2)CC(C)(C)N1C` (stereo not shown) [Eucatropine hydrochloride] had a ThS net change under setting [4] of 387.

On to `Nc1ccn([C@H]2CC[C@@H](CO)O2)c(=O)n1` [Zalcitabine], for which the ThS net change under setting [4] turned out to be 410.

Under setting [4], `CCn1cc(C(=O)O)c(=O)c2cc(F)c(N3CCNC(C)C3)c(F)c21` (stereo not shown) [Lomefloxacin hydrochloride] had a ThS net change of 390.

Under setting [4], `COc1ccccc1O` [Guaiacol] came in with a ThS net change of 397.

Consider `O=C(NCCO[N+](=O)[O-])c1cccnc1` [Nicorandil], for which, under setting [3], the ThS net change worked out at 376.

Under setting [3], `CC(C)(C)NC(=O)[C@H]1CC[C@H]2[C@@H]3CC[C@H]4NC(=O)C=C[C@]4(C)[C@H]3CC[C@]12C` [Finasteride] came in with a ThS net change of 346.

In turn, `COc1cc(C(=O)N2CCOCC2)cc(OC)c1OC` [Trimetozine] gave a ThS net change under setting [4] of 404.

Consider `CCN1CCCC(OC(=O)C(c2ccccc2)c2ccccc2)C1` (stereo not shown) [Piperidolate hydrochloride], for which the ThS net change under setting [4] is on record as 406.

As to `C[C@]12CC[C@H](O)C[C@H]1CC[C@@H]1[C@@H]2C[C@@H](O)[C@]2(C)[C@@H](C3=CC(=O)OC3)CC[C@]12O` [Digoxigenin], under setting [2], the ThS net change is given as 440.

Regarding `CCOC(=O)n1ccn(C)c1=S` [Carbimazole], under setting [4], the ThS net change stood at 380.

`O=C(c1ccc(OCCN2CCCCC2)cc1)c1c(-c2ccc(O)cc2)sc2cc(O)ccc12` [Raloxifene hydrochloride]: the “PTAI>2SD” value is on record as “*” and the ThS net change is given as 133.

As to `O=C1O[C@H]([C@@H](O)CO)C(O)=C1O` [Ascorbic acid], under setting [3], the ThS net change turned out to be 361.

The compound `CC(C)(C)C(=O)OCOC(=O)[C@@H]1N2C(=O)[C@@H](NC(=O)[C@H](N)c3ccccc3)[C@H]2SC1(C)C` [Pivampicillin] gave a ThS net change under setting [2] of 481.

`Cc1c(Cl)cccc1Nc1ccccc1C(=O)O` [Tolfenamic acid]: under setting [4], the ThS net change is listed as 383.

As for `CNCCC=C1c2ccccc2C=Cc2ccccc21` [Norcyclobenzaprine], the ThS net change under setting [3] came to 372.

In turn, `NS(=O)(=O)c1cc2c(cc1Cl)N=CNS2(=O)=O` [Chlorothiazide] yielded a ThS net change under setting [3] of 359.

`CS(=O)(=O)Nc1ccc([N+](=O)[O-])cc1Oc1ccccc1` [Nimesulide] returned a ThS net change under setting [6] of 288.

`Clc1cccc(Cl)c1N=C1NCCN1` [Clonidine hydrochloride] registered a ThS net change under setting [3] of 330.

Under setting [4], `CN1C2CCCC1CC(NC(=O)c1nn(C)c3ccccc13)C2` (stereo not shown) [Granisetron] displayed a ThS net change of 399.

Compound `CO[C@H]1C[C@H](O[C@H]2[C@H](C)[C@@H](O[C@@H]3O[C@H](C)C[C@H](N(C)C)[C@H]3OC(C)=O)[C@@H](C)C[C@@]3(CO3)C(=O)[C@H](C)[C@@H](OC(C)=O)[C@@H](C)[C@@H](C)OC(=O)[C@@H]2C)O[C@@H](C)[C@@H]1OC(C)=O` [Troleandomycin] displayed a ThS net change under setting [3] of 357.

For `Cc1ncc([N+](=O)[O-])n1CC(C)O` (stereo not shown) [Secnidazole], under setting [6], the ThS net change is listed as 327.

For `CCCCC1C(=O)N(c2ccccc2)N(c2ccc(O)cc2)C1=O` (stereo not shown) [Oxyphenbutazone], the ThS net change under setting [4] came to 398.

In the case of `CN(C)C(=O)Oc1ccc[n+](C)c1.[I-]` [Pyridostigmine iodide], the ThS net change under setting [1] is reported as 381.

With `C[N+](C)(CCOc1ccccc1)Cc1ccccc1.O=C([O-])c1cc2ccccc2cc1O` [Bephenium hydroxynaphthoate], under setting [3], the ThS net change was found to be 370.

With `CCN(CC)C(=O)Nc1ccc(OCC(O)CNC(C)(C)C)c(C(C)=O)c1` (stereo not shown) [Celiprolol HCl], the ThS net change under setting [4] is 396.

Turning to `CO/N=C(\C(=O)N[C@@H]1C(=O)N2C(C(=O)OC(C)OC(C)=O)=C(COC(N)=O)CS[C@H]12)c1ccco1` (stereo partly shown) [Cefuroxime axetil], under setting [2], the ThS net change is listed as 445.

As to `CCN(CC)CCOC(=O)C(c1ccccc1)c1ccccc1` [Adiphenine hydrochloride], the ThS net change under setting [6] turned out to be 318.

Regarding `CN(C)CCC(c1ccc(Cl)cc1)c1ccccn1` (stereo not shown) [Chlorpheniramine maleate], under setting [5], the ThS net change stood at 354.

`CCOC(=O)/C=C(C)/C=C/C=C(C)/C=C/c1c(C)cc(OC)c(C)c1C` [Etretinate] had a ThS net change under setting [2] of 420.

In the case of `OCc1cc(C(O)CNCCCCCCOCCCCc2ccccc2)ccc1O` (stereo not shown) [Salmeterol], the ThS net change under setting [3] stood at 358.

For the compound `Cc1c(C)c2c(c(C)c1O)CCC(C)(COc1ccc(CC3SC(=O)NC3=O)cc1)O2` (stereo not shown) [Troglitazone], the ThS net change under setting [2] amounted to 451.

With `Cc1nc2ccccn2c(=O)c1CCN1CCC(C(=O)c2ccc(F)cc2)CC1` [Pirenperone], the ThS net change under setting [4] came to 388.

In turn, `CCOC(=O)C1=C(C)NC(C)=C(C(=O)OC)C1c1cccc(Cl)c1Cl` (stereo not shown) [Felodipine] yielded a ThS net change under setting [4] of 405.

Regarding `CC(N/C(=N\C#N)Nc1ccncc1)C(C)(C)C` (stereo not shown) [Pinacidil], under setting [4], the ThS net change is given as 391.

`O=C(NCC1CCCCN1)c1cc(OCC(F)(F)F)ccc1OCC(F)(F)F` (stereo not shown) [Flecainide acetate] registered a ThS net change under setting [3] of 354.

Turning to `Cc1ccc(-c2ncc(Cl)cc2-c2ccc(S(C)(=O)=O)cc2)cn1` [Etoricoxib], the ThS net change under setting [3] was 376.

Take `O=c1oc2ccccc2c(O)c1Cc1c(O)c2ccccc2oc1=O` [Dicumarol]: the ThS net change under setting [3] is reported as 363.

Under setting [3], `CC(=O)Oc1cc(C(C)C)c(OCCN(C)C)cc1C.Cl` [Moxisylyte hydrochoride] returned a ThS net change of 358.
